This is an account of results in PubChem BioAssay (NCI).

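In this assay, cells in 96-well plates receive the compound at five concentrations for 48 hours. Endpoints are linearly interpolated between the surrounding concentrations. TGI is the concentration that stops growth completely.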

Assay in all cases: NCI anticancer screen, dose series, 48 h
Assay [1] concerns 786-0 renal.
Assay [2] concerns CAKI-1 renal.
The test system of assay [3] is EKVX NSCLC.
For assay [4], the system named is HCT-15 colon.
For assay [5], the system named is K-562 leukemia.
The subject of assay [6] is LOX IMVI melanoma.
Assay [7] relates to MCF7 breast.
Assay [8] relates to MOLT-4 leukemia.
The subject of assay [9] is NCI-H226 lung.
Assay [10] relates to NCI-H23 lung.
The test system of assay [11] is NCI-H522 lung.
Assay [12] concerns OVCAR-5 ovarian.
For assay [13], the system named is RPMI-8226 leukemia.
Assay [14] relates to SF-295 CNS.
Assay [15] has as its system U251 CNS.
Assay [16] concerns UACC-257 melanoma.
In assay [17] the test system is UACC-62 melanoma.
The subject of assay [18] is RXF 393 renal.

As for `Cc1ccc(S(=O)(=O)OC2C3OC(C)(C)OC3OC2C(c2cc(O)c3c(c2O)C(=O)c2ccccc2C3=O)c2cc(O)c3c(c2O)C(=O)c2ccccc2C3=O)cc1` (stereo unspecified), the TGI in assay [1], in [2], in assay [3], in [4], in assay [5] and in assay [6] was above 10 µM throughout. Also, the TGI in assay [7], in assay [8], in assay [9], in assay [10], in assay [11] and in assay [12] was above 10 µM throughout. Further, the TGI in [13], in assay [14], in [15], in assay [16] and in assay [17] was above 10 µM each time.

For `O=C(CCc1ccc(O)cc1)NCCc1ccc(O)cc1`, the TGI in assay [1], in [2], in assay [3], in assay [4], in [5] and in [6] was above 100 µM throughout. Moreover, the TGI in assay [7], in assay [8], in assay [9], in assay [10], in assay [11] and in assay [12] was above 100 µM each time. The TGI in [18], in assay [14], in [15], in assay [16] and in assay [17] was above 100 µM each time.

Regarding `Clc1cccc(Cl)c1C1SCC2=Nc3ccccc3CN21` (stereo unspecified), the TGI in assay [1] is 32.4 µM; in assay [2], above 100 µM; in assay [3], 73.6 µM; in [4], above 100 µM; in [5] it was above 100 µM; in assay [6], 41.1 µM. The TGI in assay [7] was 52.7 µM; in assay [8], above 100 µM; in [10], 34.7 µM; in assay [12], above 100 µM; in assay [13], above 100 µM; in assay [18], 56.6 µM. For the same molecule, the TGI in [14] was 33.8 µM; in assay [15], above 100 µM; in assay [16], above 100 µM; in assay [17], above 100 µM.

With `CCCCn1c(C)c(C(=O)OCC)c2cc(OCc3ccc(C(=O)Nn4c(C)ccc4C)cc3)c(Br)cc21`, the TGI in [1], in [2], in [3], in assay [4], in assay [5] and in assay [6] was above 100 µM each time. For the same molecule, the TGI in [7], in assay [8], in [9], in assay [10], in assay [11] and in assay [12] was above 100 µM each time. Further, the TGI in assay [13], in assay [14], in assay [15], in [16] and in [17] was above 100 µM in each case.

In the case of `CCN(CC)Cc1cc(Nc2ccnc3ccc4c(nnn4C)c23)ccc1O`, the TGI in assay [1] is 20.8 µM; in assay [2] it was 33.3 µM; in assay [3] it was above 100 µM; in assay [4], 13.5 µM; in assay [5], 33 µM; in [6], 29.9 µM. Moreover, the TGI was 16.7 µM in assay [7]; above 100 µM in assay [8]; 25.6 µM in assay [10]; 86 µM in [11]; 33.9 µM in assay [12]; 30.6 µM in [18]. Besides, the TGI in assay [14] stood at 25.9 µM; in [16] it was 28.8 µM; in assay [17] it was 30.9 µM.

`CCOC(=O)c1c(SC(=O)/C=C/c2ccccc2)n(-c2ccccc2)c(=S)n(-c2ccccc2)c1=O`: the TGI in [1], in [2], in [3], in [4], in assay [5] and in [6] was above 100 µM each time. Also, the TGI in assay [7], in [8], in assay [9], in [10], in [11] and in assay [12] was above 100 µM each time. Further, the TGI in [18], in assay [14], in assay [15], in assay [16] and in [17] was above 100 µM in each case.

Take `CCOC(=O)N/N=C(/N)Cc1ccccc1`: the TGI in assay [1], in [2], in [3], in [4], in assay [5] and in assay [6] was above 100 µM in each case. Besides, the TGI in assay [7], in [8], in assay [11], in [12], in assay [18] and in [14] was above 100 µM each time. Also, the TGI in [16] and in assay [17] was above 100 µM in each case.

With `C/C(=N\NC(=S)N1CC2CCC(CC2)C1)c1ccncn1`, the TGI in [1] came out at 2.86 µM; in assay [2] it was 2.44 µM; in assay [3], 4.21 µM; in [6], 3.1 µM; in assay [7], 7.61 µM; in assay [9], 2.33 µM. The TGI came to 2.4 µM in assay [10]; 2.32 µM in assay [11]; 5.44 µM in assay [12]; 2.25 µM in [18]; 4.94 µM in [14]; 6.23 µM in assay [15]. Further, the TGI amounted to 2.91 µM in assay [16] and 1.04 µM in assay [17].

Turning to `O=C1SCC(O)=C1/C=N/Nc1nc2ccccc2o1`, the TGI in assay [1] is above 100 µM; in assay [2], above 100 µM; in assay [3], 96.1 µM; in assay [4], above 100 µM; in assay [6], above 100 µM; in assay [7] it was above 100 µM. Moreover, the TGI in assay [8] is above 100 µM; in [9] it was 76.6 µM; in [10], 86.3 µM; in assay [12], above 100 µM; in assay [18], 70.7 µM; in [14], 72.4 µM. Besides, the TGI was determined as 72.5 µM in assay [16] and 46.1 µM in [17].
